One assay deals with HeLa (cervix). The assay can be described thus: SRB growth inhibition assay, HeLa. As to conditions: Homo sapiens, 96 hours incubation, read-out: Inhibition of cell growth (IC50, μM) HeLa. Format: cell-based. The source says:
(§1) Cancer cells used in this study to determine the effect of tetrahydroisoquinolin-2-yl-(quinazolin-4-yl)methanone compounds were obtained from the following sources: Human OVCAR-3 (ovary), SK-MEL-28 (melanoma), MDA-MB-231 (breast), HeLa (cervix), PC3 (prostate), HepG2 (liver), A549 (lung), Caki-1 (kidney), HCT116 (colon) and PANC-1 (pancreas) from the American Type Culture Collection (ATCC) (Manassas, Va.); U251 (brain) from Riken (Japan); MKN-45 (stomach) from DSMZ (Germany). All cell lines except MDA-MB-231, HCT116, Caki-1 and PANC-1 were grown in RPMI1640 medium (Invitrogen, Carlsbad, Calif.) supplemented with 10% fetal bovine serum (“FBS”), 1 mM sodium pyruvate, 10 mM HEPES and 100 U/ml penicillin and 100 μg/ml streptomycin (“P/S”). MDA-MB-231, HCT116, Caki-1 and PANC-1 cells were maintained in Dulbecco's modified Eagle's medium (“DMEM”, Invitrogen) supplemented with 10% FBS, P/S, 10 mM HEPES and 2 mM L-glutamine. All cells were incubated at 37° C. under humidified 5% CO2.
(§2) The growth inhibition of the tetrahydroisoquinolin-2-yl-(quinazolin-4-yl)methanone compounds against a variety of human tumor cells was evaluated to study the relative importance of particular substituent groups on the compounds. The tetrahydroisoquinolin-2-yl-(quinazolin-4-yl)methanone compounds, prepared as described above, were tested with DMSO as a control.
(§3) The growth inhibition assay of representative tetrahydroisoquinolin-2-yl-(quinazolin-4-yl)methanone derivatives against human tumor cell lines was performed using the Sulforhodamine B (“SRB”) method (Skehan et al., J. National Cancer Institute, 82: 1107-1112 (1990)). Briefly, exponentially growing tumor cells were seeded into a 96-well plate at a density of 2-3×10^3 cells/well and treated with tetrahydroisoquinolin-2-yl-(quinazolin-4-yl)methanone compounds the next day. Triplicate wells were used for each treatment. The cells were incubated with the various compounds for 96 hours at 37° C. in a humidified 5% CO2 atmosphere. After 96-hour incubation, cells were fixed with 10% trichloroacetic acid (“TCA”), incubated for 1 hour at 4° C., and washed 3 times with tap water. Subsequently, cells were stained with 0.4% sulforhodamine B in 1% acetic acid for 30 minutes, washed 4 times with 1% acetic acid, and air-dried again After 5 minutes agitation in 10 mM Tris solution, the absorbance of each well was measured at 530 nm using Benchmark Plus Microplate reader (Bio-Rad Laboratories, Hercules, Calif.).
(§4) To translate the OD530 values into the number of live cells in each well, the OD530 values were compared to those on standard OD530-versus-cell number curves generated for each cell line. The percent survival was calculated using the formula: % Survival=live cell number [test]/live cell number [control]×100
(§5) The IC50 values were calculated by non-linear regression analysis.

The test system of another assay is HCT116 (colon). The assay can be described thus: SRB growth inhibition assay, HCT116. The class given is cell-based, Human. As to conditions: Homo sapiens, HCT-116, 96 hours incubation, read-out: Inhibition of cell growth (IC50, μM) HCT116.
Source text: as §1, §2, §3, §4, §5
(§6) The compounds were screened against at […] including PANC-1, MDA-MB-231, HCT116 and Caki-1, at approximately 1 μM concentration. The inhibition of cell growth (IC50, μM) of some tetrahydroisoquinolin-2-yl-(quinazolin-4-yl)methanone compounds are shown in Table 2.

The subject of the next assay is OVCAR-3 (ovary). The assay can be described thus: SRB growth inhibition assay, OVCAR-3. The class given is cell-based. The conditions noted are these: Homo sapiens, 96 hours incubation, read-out: Inhibition of cell growth (IC50, μM) Ovcar3.
Source text: as §1, §2, §3, §4, §5

For a further assay, the system named is U251 (brain). The assay can be described thus: SRB growth inhibition assay, U251. Format: cell-based. As to conditions: Homo sapiens, U-251, 96 hours incubation, read-out: Inhibition of cell growth (IC50, μM) U251.
Source text: as §1, §2, §3, §4, §5

For a further assay, the system named is MKN-45 (stomach). Kind of assay: SRB growth inhibition assay, MKN-45. The class given is cell-based. The conditions noted are these: Homo sapiens, 96 hours incubation, read-out: Inhibition of cell growth (IC50, μM) MKN-45.
Source text: as §1, §2, §3, §4, §5

The next assay concerns Caki-1 (kidney). The assay can be described thus: SRB growth inhibition assay, Caki-1. Format: cell-based, Human. As to conditions: Homo sapiens, CAKI-1, 96 hours incubation, read-out: Inhibition of cell growth (IC50, μM) Caki-1.
Source text: as §1, §2, §3, §4, §5, §6

The subject of another assay is SK-MEL-28 (melanoma). The assay can be described thus: SRB growth inhibition assay, SK-MEL-28. Format: cell-based. As to conditions: Homo sapiens, 96 hours incubation, read-out: Inhibition of cell growth (IC50, μM) SK-MEL-28.
Source text: as §1, §2, §3, §4, §5

For the next assay, the system named is HepG2 (liver). Kind of assay: SRB growth inhibition assay, HepG2. Format: cell-based. The conditions noted are these: Homo sapiens, 96 hours incubation, read-out: Inhibition of cell growth (IC50, μM) HepG2.
Source text: as §1, §2, §3, §4, §5

For another assay, the system named is MDA-MB-231 (breast). Kind of assay: SRB growth inhibition assay, MDA-MB-231. The class given is cell-based, Human. The conditions noted are these: Homo sapiens, MDA-MB-231, 96 hours incubation, read-out: Inhibition of cell growth (IC50, μM) MDA-MB-231.
Source text: as §1, §2, §3, §4, §5, §6

In another assay the test system is A549 (lung). The assay can be described thus: SRB growth inhibition assay, A549. The conditions noted are these: Homo sapiens, 96 hours incubation, read-out: Inhibition of cell growth (IC50, μM) A549. The class given is cell-based.
Source text: as §1, §2, §3, §4, §5

Another assay deals with PANC-1 (pancreas). The assay can be described thus: SRB growth inhibition assay, PANC-1. The conditions noted are these: Homo sapiens, PANC-1, 96 hours incubation, read-out: Inhibition of cell growth (IC50, μM) Panc-1. The class given is cell-based, Human.
Source text: as §1, §2, §3, §4, §5, §6

Another assay deals with PC3 (prostate). Kind of assay: SRB growth inhibition assay, PC3. As to conditions: Homo sapiens, 96 hours incubation, read-out: Inhibition of cell growth (IC50, μM) PC-3. Format: cell-based.
Source text: as §1, §2, §3, §4, §5

Assay [1] concerns MDA-MB-231 human breast adenocarcinoma cells. Kind of assay: Xenograft study in nude mice. The class given is in vivo. The conditions noted are these: 50 mg/kg intraperitoneal three times per week from day 15; subcutaneous MDA-MB-231 xenograft, female NCr nu/nu mice. On the procedure: Tumor growth inhibition by tetrahydroisoquinolin-2-yl-(quinazolin-4-yl)methanone compounds in an animal model was carried out by performing an […] xenograft study of nude mice was conducted with Compound 1. Suitable human cancer cell lines are those that have been tested previously for inhibition of cancer cell growth. The antitumor efficacy of Compound 1 was evaluated against subcutaneously injected tumor xenografts in nude mice. Tumor volume was measured after treatment with Compound 1.
A suspension of MDA-MB-231 cells (5×10^6 cells in […]) was injected subcutaneously into the right flank of CR female NCr nu/nu mice on day 0. A sufficient number of mice were injected with MDA-MB-231 cell suspension (0.2 ml/mouse) so that tumors in a volume range as narrow as possible were selected for the trial on the day of treatment initiation. Animals with tumors in the proper size range (100˜150 mm^3) were assigned to various treatment groups. Compound 1 was dissolved in the mixture of 15% dimethylacetamide and 30% Solutol® HS15 in water. Solvent alone served as control. […] To quantify tumor growth, three perpendicular diameters of the tumors were measured with calipers every 3-4 days, and the body weight of the mice was monitored for toxicity. The tumor volume was calculated using the formula: tumor volume (mm^3)=(width)×(length)×(height)×π/6.

This note sets out measurements from patent US9713615B2, “Tetrahydroisoquinolin-2-yl-(quinazolin-4-yl)methanone compounds” (Rexahn Pharmaceuticals, Inc., priority 2013, dated 2017).

The structures appear in SMILES notation.

For the molecule `COc1ccc2c(c1O)CCN(C(=O)c1nc(-c3cccc(F)c3)nc3ccccc13)C2` [Compound 42, 2-[[2-(3-fluorophenyl)quinazolin-4-yl]carbonyl]-5-hydroxy-6-methoxy-1,2,3,4-tetrahydroisoquinoline], the IC50 (as a rule, the midpoint of a concentration-inhibition curve) in the assay with HeLa (cervix) was 0.12 µM; in the assay with HCT116 (colon), 0.14 µM; in the assay with OVCAR-3 (ovary) it was 0.15 µM; in the assay on U251 (brain), 0.11 µM; in the assay with MKN-45 (stomach), 0.051 µM; in the assay on Caki-1 (kidney), 0.082 µM. For the same molecule, the IC50 in the assay on SK-MEL-28 (melanoma) was found to be 0.098 µM; with HepG2 (liver) it was 0.2 µM; in the assay on MDA-MB-231 (breast) it was 0.12 µM; in the assay with A549 (lung), 0.21 µM; with PANC-1 (pancreas), 0.12 µM; with PC3 (prostate), 0.15 µM.

On to `COc1ccc2c(c1O)CCN(C(=O)c1nc(-c3ccncn3)nc3ccccc13)C2` [Compound 70, 2-[[2-(4-pyrimidinyl)quinazolin-4-yl]carbonyl]-5-hydroxy-6-methoxy-1,2,3,4-tetrahydroisoquinoline], for which the IC50 with HeLa (cervix) worked out at 0.074 µM; in the assay with HCT116 (colon) it was 0.068 µM; in the assay with OVCAR-3 (ovary), 0.068 µM; in the assay on U251 (brain) it was 0.064 µM; with MKN-45 (stomach), 0.058 µM; in the assay with Caki-1 (kidney), 0.055 µM. Further, the IC50 in the assay with SK-MEL-28 (melanoma) came to 0.059 µM; in the assay with HepG2 (liver), 0.096 µM; in the assay on MDA-MB-231 (breast), 0.045 µM; with A549 (lung), 0.11 µM; in the assay on PANC-1 (pancreas) it was 0.054 µM; in the assay with PC3 (prostate), 0.049 µM.

With `COc1ccc2c(c1O)CCN(C(=O)c1nc(-c3ccccc3)nc3ccccc13)C2` [Compound 17, 2-[[2-phenylquinazolin-4-yl]carbonyl]-5-hydroxy-6-methoxy-1,2,3,4-tetrahydroisoquinoline], the half-inhibitory concentration (IC50) in the assay with HeLa (cervix) came to 0.074 µM; with HCT116 (colon) it was 0.081 µM; with OVCAR-3 (ovary), 0.074 µM; in the assay on U251 (brain) it was 0.067 µM; in the assay with MKN-45 (stomach) it was 0.063 µM; with Caki-1 (kidney), 0.057 µM. Also, the IC50 was determined as 0.069 µM in the assay on SK-MEL-28 (melanoma); 0.14 µM in the assay on HepG2 (liver); 0.066 µM in the assay on MDA-MB-231 (breast); 0.15 µM in the assay with A549 (lung); 0.062 µM in the assay with PANC-1 (pancreas); 0.076 µM in the assay on PC3 (prostate).

For the molecule `COc1ccc2c(c1O)CCN(C(=O)c1nc(-c3ccc(F)cc3)nc3ccccc13)C2` [Compound 1, 2-[[2-(4-fluorophenyl)quinazolin-4-yl]carbonyl]-5-hydroxy-6-methoxy-1,2,3,4-tetrahydroisoquinoline], the IC50 in the assay with HeLa (cervix) amounted to 0.063 µM; in the assay on HCT116 (colon), 0.069 µM; in the assay with OVCAR-3 (ovary), 0.06 µM; in the assay on U251 (brain), 0.067 µM; with MKN-45 (stomach) it was 0.058 µM; in the assay with Caki-1 (kidney), 0.056 µM. Besides, the IC50 in the assay with SK-MEL-28 (melanoma) is 0.063 µM; in the assay on HepG2 (liver) it was 0.12 µM; in the assay on MDA-MB-231 (breast), 0.06 µM; in the assay on A549 (lung) it was 0.14 µM; in the assay on PANC-1 (pancreas), 0.057 µM; in the assay on PC3 (prostate), 0.076 µM. Moreover, the “inhibition of tumor growth (tumor volume)” value in [1] is “inhibition of tumor growth”.

Take `COc1ccc2c(c1O)CCN(C(=O)c1nc(-c3cccnc3)nc3ccccc13)C2` [Compound 84, 2-[[2-(3-pyridinyl)quinazolin-4-yl]carbonyl]-5-hydroxy-6-methoxy-1,2,3,4-tetrahydroisoquinoline]: the IC50 in the assay on HeLa (cervix) amounted to 0.15 µM; with HCT116 (colon), 0.15 µM; in the assay on OVCAR-3 (ovary), 0.14 µM; in the assay on U251 (brain) it was 0.11 µM; in the assay with MKN-45 (stomach) it was 0.071 µM; with Caki-1 (kidney), 0.093 µM. The IC50 is 0.13 µM in the assay on SK-MEL-28 (melanoma); 0.2 µM with HepG2 (liver); 0.13 µM in the assay with MDA-MB-231 (breast); 0.24 µM with A549 (lung); 0.15 µM in the assay on PANC-1 (pancreas); 0.15 µM in the assay on PC3 (prostate).
